Source: publication PMC11511367, “Antiproliferative Effects of Naja anchietae and Naja senegalensis Venom Peptides on Glioblastoma Cell Lines” (Toxins, 2024)
Bridges are numbered along the chain shown (N, C = ends). Where no end group is shown, it is not given here.

Key:
Format in all cases: cell-based
U251 glioblastoma cells = experiment: MTT antiproliferative assay on U251 cells; conditions: Brain glioblastoma U251, MTT, 72 h, 1 × 10^−7 to 1 × 10^−4 Molar, OD 570 nm; three-parameter log-logistic fit
Text: (§1) The purified peptides, named CTNsen1, CTNsen2, CTNsen3, CTNanc1, CTNanc2, and CTNanc3 from Naja senegalensis and Naja anchietae respectively, were subsequently tested for their antiproliferative effects on several glioblastoma cell lines (U87, U251, and T98G) as well as on primary human umbilical vein endothelial cells (HUVECs). A series of increasing concentrations (1 × 10^−⁷, 0.5 × 10^−6, 1 × 10^−⁶, 0.5 × 10^−5, 1 × 10^−⁵, 0.5 × 10^−4, and 1 × 10^−⁴ Molar) were used. The dose-response curves for each peptide are depicted in Figure 9, Figure 10, Figure 11 and Figure 12.
Figure 10 Antiproliferative activity of CTNsen1 (a), CTNsen2 (b), CTNsen3 (c), CTNanc1 (d), CTNanc2 (e), and CTNanc3 (f) from Naja senegalensis and Naja anchietae respectively. […] The OD was measured at 570 nm.
(§2) U87 and T98G were plated at a density of 4000 cells per well and U251 cells at a density of 2500 cells per well in microtiter plates and allowed to adhere overnight at 37 °C in a 5% CO2 humidified environment. The following day, the medium was replaced with fresh medium containing our venom peptides under investigation. After a 72-h incubation period, cells were treated with MTT (Promega, Lyon, France) at a concentration of 0.5 mg/mL. […] Viable cells were then quantified by measuring the absorbance at 570 nm. […] Model calibration was assessed using the drm() function. […]

T98G glioblastoma cells = experiment: MTT antiproliferative assay on T98G cells; conditions: Brain glioblastoma T98G, 72 h, 1 × 10^−7 to 1 × 10^−4 Molar, OD 570 nm, three-parameter log-logistic fit
Text: as §1
Figure 11 Antiproliferative activity of CTNsen1 (a), CTNsen2 (b), CTNsen3 (c), CTNanc1 (d), CTNanc2 (e), and CTNanc3 (f) from Naja senegalensis and Naja anchietae, respectively. […] The OD was measured at 570 nm.
as §2

MCF-7 cells = experiment: MTT antiproliferative assay on MCF-7 cells (venom screening and isolated peptides); conditions: MCF7 cells, 72 h, 4 µg and 20 µg of peptide
Protocol: We screened nearly 40 different animal venoms to evaluate their potential anticancer properties. The venoms were solubilized at a concentration of 1.5 mg/mL in water. The antiproliferative activity of these venoms was tested at two concentrations, 3 µg and 15 µg, against MCF-7 cells (Appendix A, Figure A1).
Figure A1 Antiproliferative activity of different animal venoms. […] The OD was measured at 570 nm after 72 h of treatment. The abbreviations include Na: Naja anchietae; Vg: Viridovipera gumprechti; Vk: Vipera kaznakovi; Tv: Trimeresurus vogeli; Tt: Trimeresurus trigonocephalus; Ach: Atheris chlorechis; Ath ni: Atheris nitschei nitschei; Nox: Naja oxiana; Np: Naja philippinensis; At sq: Atheris squamigera; Nhl: Naja haje legionis; Por Oph: Porthidium ophryomegas; Ph: Parias hageni; Ns: Naja senegalensis.
Figure A2 Antiproliferative activity of CTNsen1, CTNsen2, CTNsen3, CTNanc1, CTNanc2, and CTNanc3 from Naja senegalensis (b) and Naja anchietae (a), respectively. […] Na and Ns here were used as a positive control at two concentrations (3 µg and 15 µg). The OD was measured at 570 nm.

LKCHQLVPPFWKTCPEGKNLCYKMYMVSSSTVPVKRGCIDVCPKNSALVKYVCCNTDKCN (disulfide 3-21, 14-38, 42-53, 54-59) [CTNsen1]
IC50 (μg/mL), U251 (U251 glioblastoma cells): Inactive | IC50 (μg/mL), T98G (T98G glioblastoma cells): Inactive | Antiproliferative activity of isolated peptides (MCF-7 cells): activity was confirmed
